Data taken from PubChem BioAssay AID328 (DTP/NCI, 2004).
Where “and” joins values, the source holds several entries; their conditions need not be identical. Identical values can stand only once. Inconclusive results and toxic doses are left out.

System: BDF1 mice, P388 leukemia ip, median survival T/C
Test: NCI In Vivo Anticancer Drug Screen. Data for tumor model P388 Leukemia (intraperitoneal) in B6D2F1 (BDF1) mice
Settings: endpoint: median survival time, higher = longer survival
Method in brief: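 Compound-treated tumour-bearing mice were compared with vehicle-treated controls. Survival was recorded, and the value is the treated-group measurement divided by the control-group measurement (T/C).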

[1] = dose: 100.0 mg/kg/injection, schedule: Q04DX003 (ip), vehicle: saline
[2] = dose: 200.0 mg/kg/injection, schedule: Q04DX003 (ip), vehicle: saline
[3] = dose: 50.0 mg/kg/injection, schedule: Q04DX003 (ip), vehicle: saline
[4] = dose: 100.0 mg/kg/injection, schedule: Q01DX009 (ip), vehicle: saline
[5] = dose: 200.0 mg/kg/injection, schedule: Q01DX009 (ip), vehicle: saline
[6] = dose: 400.0 mg/kg/injection, schedule: Q01DX009 (ip), vehicle: saline
[7] = dose: 400.0 mg/kg/injection, schedule: Q04DX003 (ip), vehicle: saline
[8] = dose: 50.0 mg/kg/injection, schedule: Q01DX009 (ip), vehicle: saline with Tween-80
[9] = dose: 100.0 mg/kg/injection, schedule: Q01DX009 (ip), vehicle: saline with Tween-80
[10] = dose: 200.0 mg/kg/injection, schedule: Q01DX009 (ip), vehicle: saline with Tween-80
[11] = dose: 100.0 mg/kg/injection, schedule: Q04DX003 (ip), vehicle: saline with Tween-80
[12] = dose: 200.0 mg/kg/injection, schedule: Q04DX003 (ip), vehicle: saline with Tween-80
[13] = dose: 400.0 mg/kg/injection, schedule: Q01DX009 (ip), vehicle: saline with Tween-80
[14] = dose: 400.0 mg/kg/injection, schedule: Q04DX003 (ip), vehicle: saline with Tween-80
[15] = dose: 50.0 mg/kg/injection, schedule: Q01DX009 (ip), vehicle: Klucel (hydroxypropylcellulose) (HPC)
[16] = dose: 100.0 mg/kg/injection, schedule: Q01DX009 (ip), vehicle: Klucel (hydroxypropylcellulose) (HPC)
[17] = dose: 200.0 mg/kg/injection, schedule: Q01DX009 (ip), vehicle: Klucel (hydroxypropylcellulose) (HPC)
[18] = dose: 200.0 mg/kg/injection, schedule: Q04DX003 (ip), vehicle: Klucel (hydroxypropylcellulose) (HPC)

Compound: Cc1ccc2ccccc2n1
- T/C [1]: 87 % of control
- T/C [2]: 91 % of control

Compound: CC(=O)Nc1ccc(NC2=NCCO2)cc1
- T/C (dose: 50.0 mg/kg/injection, schedule: Q01DX001 (ip), vehicle: saline with Tween-80): 100 % of control
- T/C (dose: 100.0 mg/kg/injection, schedule: Q01DX001 (ip), vehicle: saline with Tween-80): 95 % of control
- T/C (dose: 200.0 mg/kg/injection, schedule: Q01DX001 (ip), vehicle: saline with Tween-80): 90 % of control

Compound: CCOC(=O)C(C)(Br)C(=O)OCC
- T/C (dose: 25.0 mg/kg/injection, schedule: Q04DX003 (ip), vehicle: saline): 109 % of control
- T/C [3]: 100 % of control
- T/C [1]: 113 % of control

Compound: CCOC(=O)/C(C)=C\c1c(C)[nH]c(=O)[nH]c1=O
- T/C (dose: 50.0 mg/kg/injection, schedule: Q01DX009 (ip), vehicle: saline): 102 % of control
- T/C [3]: 104 % of control
- T/C [4]: 103 % of control
- T/C [1]: 100 % of control
- T/C [5]: 99 % of control
- T/C [2]: 95 % of control and 100 % of control
- T/C [6]: 96 % of control
- T/C [7]: 91 % of control and 95 % of control

Compound: NC(=O)c1cc(OCc2ccccc2)nc2nc(Cl)nc(N)c12
- T/C [8]: 100 % of control
- T/C [9]: 96 % of control
- T/C [10]: 110 % of control

Compound: C=CCOC(=O)C1c2ccccc2Cc2ccccc21
- T/C [9]: 110 % of control
- T/C [11]: 100 % of control
- T/C [10]: 115 % of control
- T/C [12]: 100 % of control
- T/C [13]: 110 % of control
- T/C [14]: 109 % of control

Compound: ClC1OC(Cl)C(Cl)OC1Cl (centres undefined)
- T/C (dose: 6.25 mg/kg/injection, schedule: Q01DX009 (ip), vehicle: Klucel (hydroxypropylcellulose) (HPC)): 105 % of control
- T/C (dose: 12.5 mg/kg/injection, schedule: Q01DX009 (ip), vehicle: Klucel (hydroxypropylcellulose) (HPC)): 110 % of control

Compound: C=CC(N)C(=O)O (centres undefined)
- T/C (dose: 100.0 mg/kg/injection, schedule: Q04DX002 (ip), vehicle: saline with Tween-80): 117 % of control
- T/C (dose: 200.0 mg/kg/injection, schedule: Q04DX002 (ip), vehicle: saline with Tween-80): 108 % of control
- T/C (dose: 400.0 mg/kg/injection, schedule: Q04DX002 (ip), vehicle: saline with Tween-80): 100 % of control

Compound: CN(C)/N=N/c1[nH]ncc1C(N)=O
- T/C [15]: 95 % of control
- T/C [16]: 104 % of control
- T/C (dose: 100.0 mg/kg/injection, schedule: Q04DX003 (ip), vehicle: alcohol): 118 % of control
- T/C (dose: 200.0 mg/kg/injection, schedule: Q04DX003 (ip), vehicle: alcohol): 113 % of control

Compound: O=C(/C=N/O)c1ccccc1
- T/C (dose: 50.0 mg/kg/injection, schedule: Q04DX003 (ip), vehicle: gum acacia): 100 % of control
- T/C (dose: 100.0 mg/kg/injection, schedule: Q04DX003 (ip), vehicle: gum acacia): 96 % of control
- T/C (dose: 200.0 mg/kg/injection, schedule: Q04DX003 (ip), vehicle: gum acacia): 96 % of control

Compound: S=c1nc(-c2ccccc2)c(-c2ccccc2)n[nH]1
- T/C (dose: 20.0 mg/kg/injection, schedule: Q01DX001 (ip), vehicle: other): 95 % of control
- T/C (dose: 40.0 mg/kg/injection, schedule: Q01DX001 (ip), vehicle: other): 86 % of control
- T/C (dose: 40.0 mg/kg/injection, schedule: Q04DX003 (ip), vehicle: saline with Tween-80): 104 % of control
- T/C (dose: 75.0 mg/kg/injection, schedule: Q01DX001 (ip), vehicle: other): 122 % of control
- T/C (dose: 75.0 mg/kg/injection, schedule: Q04DX003 (ip), vehicle: saline with Tween-80): 108 % of control
- T/C (dose: 150.0 mg/kg/injection, schedule: Q01DX001 (ip), vehicle: other): 90 % of control
- T/C (dose: 150.0 mg/kg/injection, schedule: Q04DX003 (ip), vehicle: saline with Tween-80): 116 % of control

Compound: Cc1ccc(C(=O)/C=C/N2CCN(c3ccccc3)CC2)c(C)c1
- T/C [11]: 100 % of control
- T/C [12]: 100 % of control
- T/C [14]: 90 % of control

Compound: CCCCC1(CC)COC(C)(Cc2ccccc2)OC1 (centres undefined)
- T/C [4]: 100 % of control
- T/C [1]: 104 % of control
- T/C [5]: 100 % of control
- T/C [2]: 100 % of control
- T/C [6]: 90 % of control
- T/C [7]: 104 % of control

Compound: CC[C@H](c1ccc(O)cc1)[C@@H](CC)c1ccc(O)cc1
- T/C [15]: 90 % of control
- T/C [16]: 100 % of control
- T/C (dose: 100.0 mg/kg/injection, schedule: Q04DX003 (ip), vehicle: other): 100 % of control
- T/C (dose: 132.0 mg/kg/injection, schedule: Q04DX003 (ip), vehicle: Klucel (hydroxypropylcellulose) (HPC)): 104 % of control and 120 % of control
- T/C [17]: 104 % of control
- T/C [18]: 104 % of control and 120 % of control
- T/C (dose: 300.0 mg/kg/injection, schedule: Q04DX003 (ip), vehicle: Klucel (hydroxypropylcellulose) (HPC)): 109 % of control and 110 % of control
- T/C (dose: 400.0 mg/kg/injection, schedule: Q04DX003 (ip), vehicle: other): 105 % of control

Compound: CC(C)COC(=O)c1ccccc1O
- T/C (dose: 75.0 mg/kg/injection, schedule: Q01DX009 (ip), vehicle: Klucel (hydroxypropylcellulose) (HPC)): 109 % of control
- T/C (dose: 100.0 mg/kg/injection, schedule: Q04DX003 (ip), vehicle: Klucel (hydroxypropylcellulose) (HPC)): 111 % of control
- T/C (dose: 150.0 mg/kg/injection, schedule: Q01DX009 (ip), vehicle: Klucel (hydroxypropylcellulose) (HPC)): 90 % of control
- T/C [18]: 92 % of control
- T/C (dose: 300.0 mg/kg/injection, schedule: Q01DX009 (ip), vehicle: Klucel (hydroxypropylcellulose) (HPC)): 109 % of control

Compound: CC(=O)C(=O)NC1/C=C(C)\C=C/C(O)C/C=C(C)\C=C/C(O)CC2OC(=O)C1(C)C(=O)C2C (centres undefined)
- T/C [15]: 109 % of control and 122 % of control
- T/C [17]: 153 % of control and 163 % of control
- T/C (dose: 400.0 mg/kg/injection, schedule: Q01DX009 (ip), vehicle: Klucel (hydroxypropylcellulose) (HPC)): 171 % of control

Compound: COc1cccc2c1C(=O)c1c(O)c3c(c(O)c1C2=O)CC(O)(/C(C)=N/NC(=O)c1cc(C(F)(F)F)cc(C(F)(F)F)c1)CC3OC1CC(N)C(O)C(C)O1 (centres undefined)
- T/C (dose: 3.13 mg/kg/injection, schedule: Q04DX003 (ip), vehicle: water): 113 % of control
- T/C (dose: 6.25 mg/kg/injection, schedule: Q04DX003 (ip), vehicle: water): 109 % of control
- T/C (dose: 12.5 mg/kg/injection, schedule: Q04DX003 (ip), vehicle: water): 153 % of control
- T/C (dose: 25.0 mg/kg/injection, schedule: Q04DX003 (ip), vehicle: water): 153 % of control
- T/C (dose: 50.0 mg/kg/injection, schedule: Q04DX003 (ip), vehicle: water): 118 % of control

Compound: CN1Cc2cc3cc(c2O)C[N+](C)(C)Cc2c(Cl)c(c(Cl)c(c2Cl)C[N+](C)(C)C3)C1
- T/C (dose: 6.25 mg/kg/injection, schedule: Q01DX009 (ip), vehicle: saline): 118 % of control
- T/C (dose: 8.2 mg/kg/injection, schedule: Q01DX009 (ip), vehicle: saline): 108 % of control
- T/C (dose: 12.5 mg/kg/injection, schedule: Q01DX009 (ip), vehicle: saline): 108 % of control
- T/C (dose: 25.0 mg/kg/injection, schedule: Q01DX001 (ip), vehicle: saline): 104 % of control
- T/C (dose: 25.0 mg/kg/injection, schedule: Q01DX009 (ip), vehicle: saline): 109 % of control
- T/C (dose: 50.0 mg/kg/injection, schedule: Q01DX001 (ip), vehicle: saline): 100 % of control
- T/C (dose: 118.0 mg/kg/injection, schedule: Q01DX009 (ip), vehicle: saline): 112 % of control

Compound: CCCCC(CC)(CC(=O)O)CC(=O)O
- T/C (dose: 40.0 mg/kg/injection, schedule: Q01DX010 (ip), vehicle: water): 118 % of control

Compound: CCCCCCCCCCCCCCSC(CC(=O)O)C(=O)O (centres undefined)
- T/C (dose: 15.0 mg/kg/injection, schedule: Q01DX009 (ip), vehicle: saline with Tween-80): 87 % of control
- T/C (dose: 30.0 mg/kg/injection, schedule: Q01DX009 (ip), vehicle: saline with Tween-80): 98 % of control
- T/C (dose: 60.0 mg/kg/injection, schedule: Q01DX009 (ip), vehicle: saline with Tween-80): 94 % of control

Compound: O=C(NCc1cnccn1)Oc1ccc([N+](=O)[O-])cc1
- T/C [8]: 112 % of control
- T/C [9]: 94 % of control
- T/C [10]: 86 % of control
- T/C [13]: 97 % of control
